# Measured values as given in patent US9387212B2, “Methods for treating Parkinson's disease” (UCB Pharma S.A., priority 2012, dated 2016).
# Key:
# PD patients = conditions: Mizuno et al. 2010; Nutt et al., 2008; cited from earlier work
# [1] = test system: unilateral 6-OHDA-lesioned rats; assay: Video-based behavioural profile analysis (Ethovision) in drug-naive hemi-parkinsonian rats; type: in vivo, rat; conditions: % of the veh-treated rats; for Distance (quantity of movement): Radiprodil 3 mg/kg po, Tozadenant 30 mg/kg po, LD25 ip, LD/BZ 16/4 mg/kg ip; for Adequate body position / Adequate trajectory (gyration radius) / Contra turns (ability to shift direction) / Ipis turns (ability to shift direction): same doses
# Experimental: (§1) The specific behavioural profile of unilateral 6-OHDA-lesioned rats was recorded via 8 cameras connected to a video acquisition system. Rats under treatment were placed freely in a small environment (rotometers, 25×22 cm) or in large open-field (50×40 cm) and the behaviour was video-recorded for 55 minutes (total of 3300 sec). The placement in the small (rotometers) or large (open-field) environment may depend on the test. The rats were filmed from below as described in the section which concerns the rotational activity.
# (§2) After the in-live data recordings, the videos are subsequently analyzed by the Ethovision program from (Noldus, version 9.0). The animal and its movements and displacements were defined according to three points (nose, center and tail). The movements, position of the body and, the space occupation, were set-up according to the filter analysis defined with specific criteria and thresholds in the program. Various behavioural parameters were analyzed and only the relevant, i.e. the non-correlated ones, were kept for the final behavioural description.
# (§3) The analysis of the other types of behaviours was done with specific parameters selected in the video analysis program (Ethovision 9.0) in order to describe as best as possible the behaviour observed visually and being able to quantify it. The parameters “Distance”, “Counter Clockwise rotations”, “Clockwise rotations”, “Streched” were extracted from the analysis. Additional parameter, the “gyration radius” is calculated from the raw data obtained by the system. • Distance (=“distance”): the total distance moved by the animal (cm) • Counter clockwise (=“ipsilateral turns”): count of the number of 360° turns of ipsilateral rotations in the same sense than that of the lesion. • Clockwise (=“contralateral turns”): count of the number of 360° turns of contralateral rotations in the opposite sense to that of the lesion. • Stretched: (=“adequate body position”): time spent in a position wherein the rat stands on its four paws without any bent position of the trunk. In the program this is the parameter “body elongation” that is used to discriminate the intensity and frequency of the adequate body position. The threshold is fixed at 70%. • Gyration Radius (=“adequate trajectory”): for a specific time interval, average distance between the animal position and its average position within this specific time interval. This parameter reflect the ability of the rats to use the entire space of the arena and is measured in centimeters. Statistical Analysis
# Specific behavioural analysis: The five behaviours kept for the thorough behavioural analysis (i.e. distance, contra turns, ipsi turns, adequate body position and adequate trajectory) were analyzed with parametric statistic however if variance homogeneity was not respected for the data (Bartlett's test for equal variances) these latter were analyzed with non-parametric statistics (Kruskal-Wallis). In both case, one-way ANOVA was performed to discriminate the effect of the various treatments on each independent behaviours. Significant differences between means were determined by Tukey post hoc test or Dunn's Multiple Comparison test with p<0.05.
# The effects of the oral co-administration of Radiprodil (3 mg/kg, po) with Tozadenant (30 mg/kg, po) on the rat behaviour are compared to the testing of: • 1) these compounds separately • 2) a partially active dose of L-Dopa (25 mg/kg, ip) • 3) a fully active dose of L-Dopa/benserazide (16/4 mg/kg, ip).
# The behavioural profile was analyzed in detail with an automated behavioural analysis system based on video recordings (see methods section for the description). In addition, classical measurements (rotometers and actometers) of the behaviour are also used to assess quantity of movements. […]
# [2] = test system: hemi-parkinsonian L-Dopa-primed rats; assay: Behavioural profile analysis in L-Dopa-primed, fully dyskinetic hemi-parkinsonian rats; type: in vivo, rat; conditions: Radiprodil 3 mg/kg, Tozadenant 30 mg/kg; for Distance, in comparison to the same rats under L-Dopa/benserazide: arrow in cell: increase, decrease or no change vs LD/BZ
# Experimental: as §1, §2
# The analysis of the Abnormal Involuntary movement (“AIMs”) was performed with a specific parameter defined in Ethovision 9.0. The parameter “body elongation” was used to discriminate both the intensity and the frequency of dyskinetic (i.e. dystonic) position of the rat.
# as §3
# Consecutively to that chronic L-Dopa/benzerazide treatment, they show a very high level of contralateral rotations and AIMs at the end of this chronic treatment when tested in the open-field. […] This absence of cross-sensitization on the level of contralateral rotations and AIMs result was entirely unexpected.
# [3] = test system: unilateral 6-OHDA-lesioned rat model of Parkinson's disease; assay: General activity (distance travelled, rearing counts) in actometers; type: in vivo; conditions: Radiprodil 3 mg/kg po, Tozadenant 30 mg/kg po; three-way mixed ANOVA, Tukey p<0.05
# Experimental: Subjects: Males Sprague-Dawley rats (Janvier, France), weighing 250-275 g at the time of surgery and 400-450 g at the time of drug testing are used.
# On the day of surgery, one week after arrival, rats received unilateral 6-OHDA injection into the right medial forebrain bundle. Each rat was administered with Imipramine HCl (Sigma) 15 minutes before surgery to protect norepinephrinergic (NE) neurons. Rats were anesthetized with Ketamine (Ceva, 75 mg/kg) and Xylazine (Bayer, 10 mg/kg) and placed in stereotaxic frame (David Kopf Instrument). […] Each rat was monitored and handled regularly for 3 weeks to ensure full recovery and acclimation to the experimenters and environment. […]
# General activity was recorded within large open-field measuring horizontal and vertical movements and connected to PCs. […] Locomotion was detected and measured by 16 infrared light-beam sensors located on each side of the enclosure at heights of 3 cm. […] Activity counts were recorded by a personal computer. […]
# The level of general activity (distance and rearing) measurement in actometers was assessed by three-way mixed ANOVA with the A2A antagonist (2 levels) and the NR2B antagonist (2 levels) as between-group factors and the time as within-subjects factor (6 or 24 levels). […]
# [4] = test system: unilateral 6-OHDA-lesioned rats; assay: Chronic add-on treatment to an active dose of L-Dopa/benserazide (10 acquisition sessions; rotometers and open-field); type: in vivo, rat; conditions: plus L-Dopa 14 mg/kg/benserazide 3.5 mg/kg; in comparison to Tozadenant-treated rats (FIG. 16)
# Experimental: Rotational behaviour was recorded using a home-made computerized system. Rats were fixed in a harness, linked to mechanical sensors that were directly connected to a PC. Each 360° clock-wise or counter clock-wise turn was automatically recorded for up to 240 minutes at the maximum. Throughout the experiments, rats were allocated to individual test cages. Each of 8 clear acrylic chambers (50×40 cm), placed on a level, clear glass bottom, held by a robust frame, could be subdivided into 4 individual square test cages of 25×22 cm. A removable acrylic plate serves as a lid. […] Video sequences were recorded on hard disk for storage and subsequently transferred to PC for analysis and conservation. […]
# Data of the acquisition session under treatment with A2A and/or NR2B antagonist plus L-Dopa/benserazide were analyzed by two-way repeated measures ANOVA with chronic session as within-subjects factor (10 session levels). The reliabilities of the between-mean differences were assessed with planned contrasts using an F statistic. […]
# Ten acquisition sessions (once/day) of L-Dopa (14 mg/kg)/benserazide (3.5 mg/kg) given in co-administration to veh, Tozadenant, Radiprodil or the combination of both compounds increase progressively the level of L-Dopa-induced contralateral rotations when measured in rotometers (FIG. 15). […]
SMILES,efficacy in clinical trials in PD patients (PD patients),Distance (quantity of movement) ([1]; 0-20′),Adequate body position ([1]; 0-20′),Adequate trajectory (gyration radius) ([1]; 0-20′),Contra turns (ability to shift direction) ([1]; 0-20′),Ipis turns (ability to shift direction) ([1]; 0-20′),Distance (quantity of movement) ([1]; 30-50′),Adequate body position ([1]; 30-50′),Adequate trajectory (gyration radius) ([1]; 30-50′),Contra turns (ability to shift direction) ([1]; 30-50′),Ipis turns (ability to shift direction) ([1]; 30-50′),"Adequate body position, in comparison to the same rats under L-Dopa/benserazide ([2]; arrow gives direction vs LD/BZ) [% ↑]","Contra turns, in comparison to the same rats under L-Dopa/benserazide ([2]; arrow gives direction vs LD/BZ) [% ↓]","No AIMs, in comparison to the same rats under L-Dopa/benserazide ([2]; arrow gives direction vs LD/BZ) [% ↑]","Severe AIMs, in comparison to the same rats under L-Dopa/benserazide ([2]; arrow gives direction vs LD/BZ) [% ↓]","Distance, in comparison to the same rats under L-Dopa/benserazide [2] [% ↓]","distance (FIG. 1, right graph) [3]","level of severe AIMs in larger open-field, chronic add-on [4]","Adequate trajectory, in comparison to the same rats under L-Dopa/benserazide ([2]; arrow gives direction vs LD/BZ) [% ↑]"
C[C@@H]([C@@H](O)c1ccc(O)cc1)N1CCC(O)(c2ccccc2)CC1 [Traxoprodil],did not show the expected efficacy,–,–,–,–,–,–,–,–,–,–,–,–,–,–,–,–,–,–
"COc1ccc(N2CCOCC2)c2sc(NC(=O)N3CCC(C)(O)CC3)nc12 [Tozadenant, 4-hydroxy-4-methyl-piperidine-1-carboxylic acid (4-methoxy-7-morpholin-4-yl-benzothiazol-2-yl)-amide]",–,+ (200-300%),+ (200-300%),+++ (>500%),+ (200-300%),+ (200-300%),++ (300-500%),++ (300-500%),+++ (>500%),++ (300-500%),++ (300-500%),4151,11,948,12,56,Significant effect,–,–
O=C(Nc1ccc2[nH]c(=O)oc2c1)C(=O)N1CCC(Cc2ccc(F)cc2)CC1 [Radiprodil],–,++ (300-500%),++ (300-500%),++ (300-500%),+ (200-300%),+ (200-300%),+ (200-300%),++ (300-500%),++ (300-500%),+ (200-300%),+ (200-300%),5236,16,1035,7,69,Significant effect,level of severe AIMs is reduced,140
CCn1c(=O)c2c(nc(/C=C/c3ccc(OC)c(OC)c3)n2C)n(CC)c1=O [KW-6002],did not show the expected efficacy,–,–,–,–,–,–,–,–,–,–,–,–,–,–,–,–,–,–
"N[C@@H](Cc1ccc(O)c(O)c1)C(=O)O [LD25, L-dihydroxyphenylalanine]",–,++ (300-500%),+ (200-300%),+++ (>500%),+++ (>500%),++ (300-500%),+++ (>500%),++ (300-500%),+++ (>500%),+++ (>500%),++ (300-500%),–,–,–,–,–,–,–,–
